Data: patent US10369138B2, “Monobactam organic compounds for the treatment of bacterial infections” (Novartis AG, priority 2014, dated 2019)
Values after ≈ are worked out from the molar mass of the structure shown. Read-outs that look alike come from different tables or passages of the source.

Assays:
[1] = tested on: E. coli strain 25922; test: MIC by broth microdilution, E. coli strain 25922; format: cell-based
In short: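 CLSI broth microdilution in cation-adjusted Mueller-Hinton broth, inoculum about 5×10^5 CFU/mL, 10% DMSO from the diluted series, 20 h at 35-37° C. MIC is the lowest concentration preventing visible growth, read by eye and at 600 nm.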

[2] = tested on: E. coli containing KPC-2; test: MIC by broth microdilution, E. coli containing KPC-2 (Ec KPC2 Iso); format: cell-based; conditions: Escherichia coli, read-out: Ec KPC2 Iso (MIC), E. coli containing KPC-2 (carbapenemase from Klebsiella pneumoniae)
In short: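 Host E. coli BW25113 pspB carrying multicopy pBAD18-kan plasmid with constitutive TEM-promoter KPC-2 expression (periplasmic signal sequence); broth microdilution per CLSI in cation-adjusted Mueller-Hinton broth, inoculum ~5×10^5 CFU/mL, compounds twofold serially diluted from DMSO masters (10% DMSO in dilution series added).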

[3] = Escherichia coli, 25922, E. coli strain 25922, read-out: Ec 25922 (MIC)

Structure (SMILES) | MIC [1, 3] [µg/mL] | MIC [2] [µg/mL] | MIC ([1]; Escherichia coli, 25922, read-out: Ec 25922 (MIC)) [µg/mL]
CC(C)(O/N=C(\C(=O)N[C@@H]1C(=O)N(S(=O)(=O)O)[C@@H]1Cn1cc(CCN2CCNCC2)nn1)c1csc(N)n1)C(=O)O [Example 42, 2-(((Z)-(1-(2-aminothiazol-4-yl)-2-oxo-2-(((3S,4R)-2-oxo-4-((4-(2-(piperazin-1-yl)ethyl)-1H-1,2,3-triazol-1-yl)methyl)-1-sulfoazetidin-3-yl)amino)ethylidene)amino)oxy)-2-methylpropanoic acid] | 1.4 (≈ 2.28 µM) | 2 (≈ 3.25 µM) | 
N=C(NC1[C@H]2CNC[C@@H]12)c1ccc(OC[C@H](O/N=C(\C(=O)N[C@@H]2C(=O)N(S(=O)(=O)O)[C@@H]2Cn2cncn2)c2csc(N)n2)C(=O)O)cc1 (stereo partly drawn) [Example 81, (S)-2-(((Z)-(2-(((2R,3S)-2-((1H-1,2,4-triazol-1-yl)methyl)-4-oxo-1-sulfoazetidin-3-yl)amino)-1-(2-aminothiazol-4-yl)-2-oxoethylidene)amino)oxy)-3-(4-(N-((1R,5S,6s)-3-azabicyclo[3.1.0]hexan-6-yl)carbamimidoyl)phenoxy)propanoic acid] |  | 0.125 (≈ 0.178 µM) | 0.125 (≈ 0.178 µM)
Nc1nc(/C(=N/OC2(C(=O)O)CC2)C(=O)N[C@@H]2C(=O)N(S(=O)(=O)O)[C@@H]2CN2CCNC2=O)cs1 [Example 108, 1-(((Z)-(1-(2-aminothiazol-4-yl)-2-oxo-2-(((3S,4R)-2-oxo-4-((2-oxoimidazolidin-1-yl)methyl)-1-sulfoazetidin-3-yl)amino)ethylidene)amino)oxy)cyclopropanecarboxylic acid] | 0.125 (≈ 0.242 µM) | ≤ 0.06 | 
CC(C)(O/N=C(\C(=O)N[C@@H]1C(=O)N(S(=O)(=O)O)[C@@H]1Cn1ncc(CNC=N)n1)c1csc(N)n1)C(=O)O [Example 62, 2-(((Z)-(1-(2-aminothiazol-4-yl)-2-(((2R,3S)-2-((4-(formimidamidomethyl)-2H-1,2,3-triazol-2-yl)methyl)-4-oxo-1-sulfoazetidin-3-yl)amino)-2-oxoethylidene)amino)oxy)-2-methylpropanoic acid] | 0.5 (≈ 0.895 µM) | 2 (≈ 3.58 µM) | 
CNCCNCc1cnn(C[C@@H]2[C@H](NC(=O)/C(=N\OC3(C(=O)O)CC3)c3csc(N)n3)C(=O)N2S(=O)(=O)O)n1 [Example 117, 1-(((Z)-(1-(2-aminothiazol-4-yl)-2-(((2R,3S)-2-((4-(((2-(methylamino)ethyl)amino)methyl)-2H-1,2,3-triazol-2-yl)methyl)-4-oxo-1-sulfoazetidin-3-yl)amino)-2-oxoethylidene)amino)oxy)cyclopropanecarboxylic acid] | 0.5 (≈ 0.852 µM) | 1 (≈ 1.7 µM) | 
CC(C)(N)CCNCc1cnn(C[C@@H]2[C@H](NC(=O)/C(=N\OC3(C(=O)O)CC3)c3csc(N)n3)C(=O)N2S(=O)(=O)O)n1 [Example 131, 1-(((Z)-(2-(((2R,3S)-2-((4-(((3-amino-3-methylbutyl)amino)methyl)-2H-1,2,3-triazol-2-yl)methyl)-4-oxo-1-sulfoazetidin-3-yl)amino)-1-(2-aminothiazol-4-yl)-2-oxoethylidene)amino)oxy)cyclopropanecarboxylic acid] | 1 (≈ 1.63 µM) | 2 (≈ 3.25 µM) | 
CC(C)(O/N=C(\C(=O)N[C@@H]1C(=O)N(S(=O)(=O)O)[C@@H]1Cn1ccc(N)n1)c1csc(N)n1)C(=O)O [Example 34, 2-(((Z)-(2-(((2R,3S)-2-((3-amino-1H-pyrazol-1-yl)methyl)-4-oxo-1-sulfoazetidin-3-yl)amino)-1-(2-aminothiazol-4-yl)-2-oxoethylidene)amino)oxy)-2-methylpropanoic acid] | > 64 | > 64 | 
Nc1nc(/C(=N/OC2(C(=O)O)CC2)C(=O)N[C@@H]2C(=O)N(S(=O)(=O)O)[C@@H]2Cn2ncc(CN3CC(N)C3)n2)cs1 [Example 106, 1-(((Z)-(2-(((2R,3S)-2-((4-((3-aminoazetidin-1-yl)methyl)-2H-1,2,3-triazol-2-yl)methyl)-4-oxo-1-sulfoazetidin-3-yl)amino)-1-(2-aminothiazol-4-yl)-2-oxoethylidene)amino)oxy)cyclopropanecarboxylic acid] | ≤ 0.06 | ≤ 0.06 | 
CC(C)(O/N=C(\C(=O)N[C@@H]1C(=O)N(S(=O)(=O)O)[C@@H]1Cn1cc(C(=O)O)nn1)c1csc(N)n1)C(=O)O [Example 51, 1-(((2R,3S)-3-((Z)-2-(2-aminothiazol-4-yl)-2-(((2-carboxypropan-2-yl)oxy)imino)acetamido)-4-oxo-1-sulfoazetidin-2-yl)methyl)-1H-1,2,3-triazole-4-carboxylic acid] | > 64 | 16 (≈ 29.3 µM) | 
Nc1nc(/C(=N/OC2(C(=O)O)CC2)C(=O)N[C@@H]2C(=O)N(S(=O)(=O)O)[C@@H]2Cn2ncc(CNCC3CNC3)n2)cs1 [Example 85, 1-(((Z)-(1-(2-aminothiazol-4-yl)-2-(((2R,3S)-2-((4-(((azetidin-3-ylmethyl)amino)methyl)-2H-1,2,3-triazol-2-yl)methyl)-4-oxo-1-sulfoazetidin-3-yl)amino)-2-oxoethylidene)amino)oxy)cyclopropanecarboxylic acid] | 0.5 (≈ 0.835 µM) | 0.5 (≈ 0.835 µM) | 
CN(Cc1cnn(C[C@@H]2[C@H](NC(=O)/C(=N\OC3(C(=O)O)CC3)c3csc(N)n3)C(=O)N2S(=O)(=O)O)n1)C(=N)NCCCN [Example 148, 1-(((Z)-(2-(((2R,3S)-2-((4-((3-(3-aminopropyl)-1-methylguanidino)methyl)-2H-1,2,3-triazol-2-yl)methyl)-4-oxo-1-sulfoazetidin-3-yl)amino)-1-(2-aminothiazol-4-yl)-2-oxoethylidene)amino)oxy)cyclopropanecarboxylic acid] | 1 (≈ 1.56 µM) | 1 (≈ 1.56 µM) | 
CC(C)(O/N=C(\C(=O)N[C@@H]1C(=O)N(S(=O)(=O)O)[C@@H]1Cc1cn(CCN)nn1)c1csc(N)n1)C(=O)O [Example 101, 2-(((Z)-(2-(((2R,3S)-2-((1-(2-aminoethyl)-1H-1,2,3-triazol-4-yl)methyl)-4-oxo-1-sulfoazetidin-3-yl)amino)-1-(2-aminothiazol-4-yl)-2-oxoethylidene)amino)oxy)-2-methylpropanoic acid] | 1 (≈ 1.83 µM) | 1 (≈ 1.83 µM) | 
CC(C)(O/N=C(\C(=O)N[C@@H]1C(=O)N(S(=O)(=O)O)[C@@H]1CN1C[C@@H](CNC(=N)N)OC1=O)c1csc(N)n1)C(=O)O [Example 24, 2-(((Z)-(1-(2-aminothiazol-4-yl)-2-(((2R,3S)-2-(((R)-5-(guanidinomethyl)-2-oxooxazolidin-3-yl)methyl)-4-oxo-1-sulfoazetidin-3-yl)amino)-2-oxoethylidene)amino)oxy)-2-methylpropanoic acid] | 0.25 (≈ 0.423 µM) | 1 (≈ 1.69 µM) | 
CC(C)(O/N=C(\C(=O)N[C@@H]1C(=O)N(S(=O)(=O)O)[C@@H]1Cn1ncnc1CNC(=N)N)c1csc(N)n1)C(=O)O [Example 13, 2-(((Z)-(1-(2-aminothiazol-4-yl)-2-(((2R,3S)-2-((5-(guanidinomethyl)-1H-1,2,4-triazol-1-yl)methyl)-4-oxo-1-sulfoazetidin-3-yl)amino)-2-oxoethylidene)amino)oxy)-2-methylpropanoic acid] | 16 (≈ 27.9 µM) | 32 (≈ 55.8 µM) | 
NCC1CN(C(=O)OCc2cnn(C[C@@H]3[C@H](NC(=O)/C(=N\OC4(C(=O)O)CC4)c4csc(N)n4)C(=O)N3S(=O)(=O)O)n2)C1 [Example 149, 1-(((Z)-(2-(((2R,3S)-2-((4-(((3-(aminomethyl)azetidine-1-carbonyl)oxy)methyl)-2H-1,2,3-triazol-2-yl)methyl)-4-oxo-1-sulfoazetidin-3-yl)amino)-1-(2-aminothiazol-4-yl)-2-oxoethylidene)amino)oxy)cyclopropanecarboxylic acid] | 0.5 (≈ 0.778 µM) | 0.5 (≈ 0.778 µM) | 
